Experimental data published in patent publication US20230003717A1, “USE OF SYNAPTOTAGMIN-7 IN THE DIAGNOSIS AND TREATMENT OF BIPOLAR DISORDER” (TSINGHUA UNIVERSITY, priority 2020, published 2023).

How the values were obtained:
Format in all cases: in vivo
[1] = test system: Syt7 KO mice; assay: forced swim test (FST), Syt7 KO mice; conditions: 30 mg/kg intraperitoneal, night phase and day phase
Procedure: (§1) The 11 genes in the DG region of the mice were knocked down using shRNA virus. The mice were subject to a forced swim test (FST), and the immobility time of the mice was analyzed. The immobility time is an indicator that reflects the feeling of despair of the mice, and a longer immobility time indicates a more serious feeling of despair. The result is shown in panel C in FIG. 1.
The behaviors of Syt7 KO mice (i.e., Syt7-knockout mice) were then examined in the FST test.
Syt7 KO mice were first treated with the atypical antipsychotic olanzapine (OLZ) and observed for the dose dependence (administered with doses of 0.2 mg/kg, 0.5 mg/kg and 1.0 mg/kg) (using ANOVA statistical method). […] Without being limited by theory, this may be associated with an antidepressant effect of olanzapine in treating BD patients.
(§2) The effect of clinical BD treatment lithium on behavioral abnormalities in Syt7 KO mice was then tested.

[2] = test system: WT mice; assay: forced swim test (FST), WT mice; conditions: 30 mg/kg intraperitoneal, night phase and day phase
Procedure: as §1, §2

[3] = test system: Syt7 KO mice; assay: learned helplessness (LH) test, Syt7 KO mice; conditions: 30 mg/kg intraperitoneal, night phase and day phase, vs untreated control
Procedure: (§3) Considering that the FST/TS tests can not represent all the characterizations of human disease, a learned helplessness (LH) test and a sucrose preference test (SPT) were conducted. LH is associated with depression. In the LH test, the escape failure number of mice is an indicator for determining the depression of animal due to external pressure. A higher escape failure number indicates a more significant depression. SPT is associated with anhedonia. The proportion of sucrose preference of the mice can serve as an indicator for determining the anhedonia severity of the mice. A higher proportion of sweet preference indicates an enhancement in hedonic feeling.
(§4) Then, the LH/SPT/LDB behavioral paradigms were adopted for detecting the effect of high-dose olanzapine treatment (1.0 mg/kg) on abnormal behaviors of the Syt7 KO mice.
as §2

[4] = test system: WT mice; assay: learned helplessness (LH) test, WT mice; conditions: 30 mg/kg intraperitoneal, night phase and day phase, vs untreated control
Procedure: as §3, §4, §2

[5] = test system: Syt7 KO mice; assay: sucrose preference test (SPT), Syt7 KO mice; conditions: 30 mg/kg intraperitoneal, night phase and day phase, vs untreated control
Procedure: as §3, §4, §2

[6] = test system: WT mice; assay: sucrose preference test (SPT), WT mice; conditions: 30 mg/kg intraperitoneal, night phase and day phase, vs untreated control
Procedure: as §3, §4, §2

[7] = test system: Syt7 KO mice; assay: light-dark box (LDB) test, Syt7 KO mice; conditions: 30 mg/kg intraperitoneal, night phase and day phase
Procedure: (§5) Since BD patients often had clinical symptoms of anxiety, a light-dark box (LDB) test was conducted to observe anxiety-like behaviors in the Syt7 KO mice.
as §4, §2

[8] = test system: WT mice; assay: light-dark box (LDB) test, WT mice; conditions: 30 mg/kg intraperitoneal
Procedure: as §5, §4, §2

O=C([O-])[O-].[Li+].[Li+] [Li2CO3]
immobility time in FST [1]: no effect | immobility time in FST [2]: no effect | escape numbers in LH test [3]: increased escape numbers | escape numbers in LH test [4]: increased escape numbers | sucrose preference (SPT) [5]: decreased sucrose preference | sucrose preference (SPT) [6]: decreased sucrose preference | time spent in the light compartment in the LDB test [7]: reducing the time spent in the light compartment | time spent in the light compartment in the LDB test [8]: no effect on WT
